Laboratory results published in ChEMBL document CHEMBL3098066, “Minimum active structure of insulin-like peptide 5” (J Med Chem, 2013).
Activity calls are given as the source filed them. Where a SMILES comes first, the peptide text is derived from it. Bridges are numbered along the chain shown (N, C = ends). The star is where a group is joined. Acm = CC(=O)NC*; tBu = CC(C)(C)*; Cam = NC(=O)C*

Key:
[1] = molecular target: Relaxin-3 receptor 2 (Homo sapiens) (UniProt Q8TDU9); experiment: Agonist activity at human RXFP4 transfected in CHO-K1 cells assessed as inhibition of forskolin-induced cAMP production by beta-galactosidase reporter gene assay; type: functional, cell-based
Relaxin-3 receptor 2 (Homo sapiens), sequence (Q8TDU9 whole entry): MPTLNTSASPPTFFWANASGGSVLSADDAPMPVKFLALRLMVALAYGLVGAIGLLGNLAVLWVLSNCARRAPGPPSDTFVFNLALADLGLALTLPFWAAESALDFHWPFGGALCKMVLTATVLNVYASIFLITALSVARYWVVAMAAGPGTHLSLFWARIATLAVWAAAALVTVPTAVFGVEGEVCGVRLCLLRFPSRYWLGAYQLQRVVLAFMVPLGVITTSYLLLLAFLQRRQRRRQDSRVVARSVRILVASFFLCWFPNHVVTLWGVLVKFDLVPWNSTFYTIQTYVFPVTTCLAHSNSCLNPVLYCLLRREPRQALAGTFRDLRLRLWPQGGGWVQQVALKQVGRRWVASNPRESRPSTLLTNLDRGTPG

[2] = molecular target: Relaxin-3 receptor 2 (Homo sapiens) (UniProt Q8TDU9); experiment: Agonist activity at human RXFP4 transfected in CHO-K1 cells at 0.01 nM to 1000 nM by beta-galactosidase reporter gene assay relative to forskolin; type: functional, cell-based
[3] = molecular target: Relaxin-3 receptor 2 (Homo sapiens) (UniProt Q8TDU9); experiment: Displacement of Eu(A)-mINSL5 acid from human RXFP4 transfected in CHO-K1 cells by fluorescence-based assay; type: cell-based
[4] = molecular target: Relaxin-3 receptor 2 (Homo sapiens) (UniProt Q8TDU9); experiment: Agonist activity at human RXFP4 transfected in CHO-K1 cells at 10 uM by beta-galactosidase reporter gene assay relative to forskolin; type: functional, cell-based
[5] = molecular target: Relaxin-3 receptor 2 (Homo sapiens) (UniProt Q8TDU9); experiment: Agonist activity at human RXFP4 transfected in CHO-K1 cells up to 10 uM by beta-galactosidase reporter gene assay relative to forskolin; type: functional, cell-based

CSCC[C@H](NC(=O)[C@H](CO)NC(=O)[C@H](CSCC(N)=O)NC(=O)CNC(=O)[C@H](CCC(=O)O)NC(=O)[C@H](CCCNC(=N)N)NC(=O)[C@H](CSC(C)(C)C)NC(=O)[C@H](CSCC(N)=O)NC(=O)[C@H](CC(C)C)NC(=O)[C@H](C)NC(=O)[C@H](CCC(N)=O)NC(=O)[C@H](CC(C)C)NC(=O)[C@H](CC(=O)O)NC(=O)[C@@H](N)CCCNC(=N)N)C(=O)N[C@@H](CCCCN)C(=O)N[C@@H](CCC(=O)O)C(=O)N[C@@H](CC(C)C)C(=O)N[C@@H](CO)C(=O)N[C@H](C(=O)N[C@@H](CC(C)C)C(=O)N[C@@H](CSCNC(C)=O)C(=O)O)[C@@H](C)O (H-RDLQALC(Cam)C(tBu)REGC(Cam)SMKELSTLC(Acm)-OH)
inactive: pEC50 [1] | Emax [2] | pIC50 [3]

CSCC[C@H](NC(=O)[C@H](CO)NC(=O)[C@@H]1CSSC[C@H](NC(=O)[C@H](CC(C)C)NC(=O)[C@H](C)NC(=O)[C@H](CCC(N)=O)NC(=O)[C@H](CC(C)C)NC(=O)[C@H](CC(=O)O)NC(=O)[C@@H](N)CCCNC(=N)N)C(=O)N[C@@H](CSC(C)(C)C)C(=O)N[C@@H](CCCNC(=N)N)C(=O)N[C@@H](CCC(=O)O)C(=O)NCC(=O)N1)C(=O)N[C@@H](CCCCN)C(=O)N[C@@H](CCC(=O)O)C(=O)N[C@@H](CC(C)C)C(=O)N[C@@H](CO)C(=O)N[C@H](C(=O)N[C@@H](CC(C)C)C(=O)N[C@@H](CSCNC(C)=O)C(=O)O)[C@@H](C)O (H-RDLQALCC(tBu)REGCSMKELSTLC(Acm)-OH; disulfide 7-12)
inactive: pEC50 [1] | Emax [2] | pIC50 [3]

H-SRQTVKLAGLDYVRTVIYIAASSRW-OH
inactive: pEC50 [1] | Emax [4] | pIC50 [3]

H-SRQTVKLAGLDYVRTVIYIAR-OH
inactive: pEC50 [1] | Emax [5] | pIC50 [3]
